Results reported in ChEMBL document CHEMBL1201862, “PubChem BioAssay data set” (2004).
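These data come from cells grown in 96-well plates and exposed to compound for 48 hours at five concentrations. GI50 = concentration required for 50% inhibition of growth.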 The source made the active and inactive calls. Rule as the data show it: active = GI50 up to about 1.1 µM and inactive = higher.

Key:
Assay in all cases: NCI-60 cell line screen, 48 h
[1] = system: SR
[2] = system: IGROV-1
[3] = system: NCI-H460
[4] = system: NCI/ADR-RES
[5] = system: MCF7
[6] = system: Malme-3M
[7] = system: M14
[8] = system: SK-MEL-5
[9] = system: OVCAR-5
[10] = system: BT-549
[11] = system: OVCAR-3
[12] = system: MOLT-4
[13] = system: HCT-116
[14] = system: T47D
[15] = system: LOX IMVI
[16] = system: SF-268
[17] = system: MDA-MB-231
[18] = system: RPMI-8226
[19] = system: MDA-MB-435
[20] = system: UACC-257
[21] = system: SW-620
[22] = system: EKVX
[23] = system: A498
[24] = system: CAKI-1
[25] = system: SF-295
[26] = system: CCRF-CEM
[27] = system: MDA-N
[28] = system: UO-31
[29] = system: NCI-H23
[30] = system: DU-145
[31] = system: KM12
[32] = system: NCI-H226
[33] = system: PC-3
[34] = system: RXF 393
[35] = system: SNB-75
[36] = system: Hs-578T
[37] = system: HCT-15
[38] = system: HOP-62
[39] = system: SK-MEL-2
[40] = system: HL-60
[41] = system: UACC-62
[42] = system: OVCAR-8
[43] = system: TK-10
[44] = system: SK-MEL-28
[45] = system: SK-OV-3
[46] = system: NCI-H522
[47] = system: SNB-19
[48] = system: COLO 205
[49] = system: SN12C
[50] = system: U-251
[51] = system: HT-29
[52] = system: K562
[53] = system: SF-539
[54] = system: A549
[55] = system: 786-0
[56] = system: HOP-92
[57] = system: ACHN
[58] = system: OVCAR-4
[59] = system: HCC 2998

COC(=O)C1c2c(c3ccccc3n2C(=O)OC)CCN2CCC1C(S(=O)(=O)c1ccccc1)C2=O (stereo not given)
GI50 [1]: 87.7 µM (inactive) | GI50 [2]: > 100 µM (inactive) | GI50 [3]: > 100 µM (inactive) | GI50 [4]: > 100 µM (inactive) | GI50 [5]: > 100 µM (inactive) | GI50 [6]: > 100 µM (inactive) | GI50 [7]: > 100 µM (inactive) | GI50 [8]: > 100 µM (inactive) | GI50 [9]: > 100 µM (inactive) | GI50 [10]: > 100 µM (inactive) | GI50 [11]: > 100 µM (inactive) | GI50 [12]: 40.5 µM (inactive) | GI50 [13]: > 100 µM (inactive) | GI50 [14]: > 100 µM (inactive) | GI50 [15]: > 100 µM (inactive) | GI50 [16]: > 100 µM (inactive) | GI50 [17]: > 100 µM (inactive) | GI50 [18]: 30.6 µM (inactive) | GI50 [19]: > 100 µM (inactive) | GI50 [20]: > 100 µM (inactive) | GI50 [21]: > 100 µM (inactive) | GI50 [22]: > 100 µM (inactive) | GI50 [23]: > 100 µM (inactive) | GI50 [24]: > 100 µM (inactive) | GI50 [25]: > 100 µM (inactive) | GI50 [26]: > 100 µM (inactive) | GI50 [27]: > 100 µM (inactive) | GI50 [28]: > 100 µM (inactive) | GI50 [29]: > 100 µM (inactive) | GI50 [30]: > 100 µM (inactive) | GI50 [31]: > 100 µM (inactive) | GI50 [32]: 24 µM (inactive) | GI50 [33]: > 100 µM (inactive) | GI50 [34]: 89.1 µM (inactive) | GI50 [35]: > 100 µM (inactive) | GI50 [36]: > 100 µM (inactive) | GI50 [37]: > 100 µM | GI50 [38]: 70.3 µM (inactive) | GI50 [39]: > 100 µM (inactive) | GI50 [40]: 90.6 µM (inactive) | GI50 [41]: > 100 µM (inactive) | GI50 [42]: > 100 µM (inactive) | GI50 [43]: > 100 µM (inactive) | GI50 [44]: > 100 µM (inactive) | GI50 [45]: > 100 µM (inactive) | GI50 [46]: 89.3 µM (inactive) | GI50 [47]: 94.6 µM (inactive) | GI50 [48]: > 100 µM (inactive) | GI50 [49]: > 100 µM (inactive) | GI50 [50]: > 100 µM (inactive) | GI50 [51]: > 100 µM (inactive) | GI50 [52]: > 100 µM (inactive) | GI50 [53]: > 100 µM (inactive) | GI50 [54]: > 100 µM (inactive) | GI50 [55]: > 100 µM (inactive) | GI50 [56]: > 100 µM (inactive)

Fc1cc(F)c(F)c(S)c1F
GI50 [2]: > 100 µM (inactive) | GI50 [3]: > 100 µM (inactive) | GI50 [4]: 19.4 µM (inactive) | GI50 [5]: > 100 µM (inactive) | GI50 [57]: > 100 µM (inactive) | GI50 [6]: > 100 µM (inactive) | GI50 [7]: > 100 µM (inactive) | GI50 [8]: > 100 µM (inactive) | GI50 [9]: > 100 µM (inactive) | GI50 [10]: 26 µM (inactive) | GI50 [11]: > 100 µM (inactive) | GI50 [12]: 23.8 µM (inactive) | GI50 [13]: > 100 µM (inactive) | GI50 [14]: > 100 µM (inactive) | GI50 [15]: > 100 µM (inactive) | GI50 [16]: 77.3 µM (inactive) | GI50 [17]: 22.1 µM (inactive) | GI50 [18]: 31.3 µM (inactive) | GI50 [19]: > 100 µM (inactive) | GI50 [20]: > 100 µM (inactive) | GI50 [21]: 59.7 µM (inactive) | GI50 [22]: 25.9 µM (inactive) | GI50 [23]: 17.5 µM (inactive) | GI50 [24]: > 100 µM (inactive) | GI50 [25]: > 100 µM (inactive) | GI50 [26]: 29.5 µM (inactive) | GI50 [27]: > 100 µM (inactive) | GI50 [28]: > 100 µM (inactive) | GI50 [58]: 62.4 µM (inactive) | GI50 [29]: > 100 µM (inactive) | GI50 [30]: > 100 µM (inactive) | GI50 [31]: > 100 µM (inactive) | GI50 [32]: > 100 µM (inactive) | GI50 [59]: 34.4 µM (inactive) | GI50 [33]: 19.8 µM (inactive) | GI50 [34]: 23.7 µM (inactive) | GI50 [35]: > 100 µM (inactive) | GI50 [36]: 37.5 µM (inactive) | GI50 [37]: 59.6 µM | GI50 [38]: > 100 µM (inactive) | GI50 [39]: > 100 µM (inactive) | GI50 [40]: 30.1 µM (inactive) | GI50 [41]: > 100 µM (inactive) | GI50 [42]: 41.1 µM (inactive) | GI50 [43]: > 100 µM (inactive) | GI50 [44]: > 100 µM (inactive) | GI50 [45]: 65.6 µM (inactive) | GI50 [46]: 15.5 µM (inactive) | GI50 [47]: > 100 µM (inactive) | GI50 [48]: > 100 µM (inactive) | GI50 [49]: 20.4 µM (inactive) | GI50 [50]: > 100 µM (inactive) | GI50 [51]: 92.9 µM (inactive) | GI50 [52]: 57.4 µM (inactive) | GI50 [53]: > 100 µM (inactive) | GI50 [54]: 36.6 µM (inactive) | GI50 [55]: > 100 µM (inactive) | GI50 [56]: > 100 µM (inactive)

O=C(N/N=C(COc1cccc(Cl)c1)\N=C\c1cccnc1)c1ccncc1
GI50 [2]: > 100 µM (inactive) | GI50 [3]: > 100 µM (inactive) | GI50 [4]: > 100 µM (inactive) | GI50 [5]: > 100 µM (inactive) | GI50 [57]: 91.2 µM (inactive) | GI50 [6]: > 100 µM (inactive) | GI50 [7]: > 100 µM (inactive) | GI50 [9]: > 100 µM (inactive) | GI50 [10]: > 100 µM (inactive) | GI50 [11]: > 100 µM (inactive) | GI50 [12]: > 100 µM (inactive) | GI50 [13]: > 100 µM (inactive) | GI50 [14]: 32.5 µM (inactive) | GI50 [15]: > 100 µM (inactive) | GI50 [16]: > 100 µM (inactive) | GI50 [17]: > 100 µM (inactive) | GI50 [18]: > 100 µM (inactive) | GI50 [19]: > 100 µM (inactive) | GI50 [20]: 90.4 µM (inactive) | GI50 [21]: > 100 µM (inactive) | GI50 [22]: > 100 µM (inactive) | GI50 [23]: 40.6 µM (inactive) | GI50 [24]: 73.5 µM (inactive) | GI50 [25]: > 100 µM (inactive) | GI50 [26]: > 100 µM (inactive) | GI50 [27]: > 100 µM (inactive) | GI50 [58]: 84.7 µM (inactive) | GI50 [29]: > 100 µM (inactive) | GI50 [30]: > 100 µM (inactive) | GI50 [31]: > 100 µM (inactive) | GI50 [32]: 93.5 µM (inactive) | GI50 [59]: > 100 µM (inactive) | GI50 [33]: > 100 µM (inactive) | GI50 [34]: 35.3 µM (inactive) | GI50 [35]: 18.5 µM (inactive) | GI50 [36]: 83.4 µM (inactive) | GI50 [37]: > 100 µM | GI50 [38]: > 100 µM (inactive) | GI50 [39]: > 100 µM (inactive) | GI50 [40]: > 100 µM (inactive) | GI50 [41]: > 100 µM (inactive) | GI50 [42]: 89.3 µM (inactive) | GI50 [43]: > 100 µM (inactive) | GI50 [44]: > 100 µM (inactive) | GI50 [45]: > 100 µM (inactive) | GI50 [46]: 63.7 µM (inactive) | GI50 [47]: > 100 µM (inactive) | GI50 [48]: 95.9 µM (inactive) | GI50 [49]: > 100 µM (inactive) | GI50 [50]: > 100 µM (inactive) | GI50 [51]: > 100 µM (inactive) | GI50 [52]: > 100 µM (inactive) | GI50 [53]: > 100 µM (inactive) | GI50 [54]: > 100 µM (inactive) | GI50 [55]: > 100 µM (inactive) | GI50 [56]: 24.9 µM (inactive)
